Measured values: patent US7262325B2, “Method of preparing salicylamides” (Emisphere Technologies, Inc., priority 2000, dated 2007)

From the text: A preferred base for such an alkylation reaction is sodium carbonate. […] The water content of the reaction mixture may also be reduced by performing the reaction in a low pressure atmosphere (e.g a vacuum).

solubility in DMAC: about 6%
SMILES: O=c1[n-]c(=O)c2ccccc2o1.[Na+] [carsalam-sodium]
